Reference: US20060263895A1, “Method for monitoring the stereoselectivity and relative rate of organic chemical reactions” (priority 2005, published 2006)

What was measured:
[1] = Double cuvette-ISES (in situ enzymatic screening) of Co(III)-salen mediated HKR of (±)-propylene oxide; settings: for % ee of the 1,2-propanediol product, as predicted by double-cuvette ISES (upper number): bilayer of pH 8.6 buffer over 7.2 M epoxide in CHCl3, 0.25 mol % catalyst, 15-35 min, + = (S), − = (R)
Experimental: Aqueous reporting layers. containing TBADH/NADP+ (cuvette 1) and HLADH/NAD+ (cuvette 2), respectively, are then added. The increase in absorbance at 340 nm can be followed for several such sets in parallel by UV-vis spectrophotometry. The kinetic data are then used to make the double-cuvette ISES predictions.
A general procedure for double cuvette-ISES to estimate both enantioselectivities and relative rates for an array of catalysts being screened in parallel is presented below. The hydrolytic kinetic resolution (HKR) of (±) propylene oxide was chosen as model reaction.
Typically, quartz cuvettes with one cm light paths and with nominal one mL volumes were used. For each catalyst, a two cuvette screen was performed, with cuvette A containing HLADH, as (S)-propanediol-selective reporting enzyme, and cuvette B containing TBADH, as a (R)-propanediol-selective reporting enzyme. For each cuvette, the final volume was 800 μL (300 μL of organic layer; 500 μL of aqueous layer).
Both cuvettes A and B had the following composition: 150 μL (2.15 mmol) of (±)-propylene oxide (7.2 M in organic layer), 150 μL of CHCl3 and 0.25 mol % Co(III)-salen catalyst. The total organic layer volume was maintained as 300 μL in all catalyst screens.
(i) Cuvette A: 0.35 U HLADH (17.6 μL from a stock solution (0.02U/μL)), 7.2 mM β-NAD+(16.5 μL from a 220 mM stock) and 465.8 μL of 50 mM sodium pyrophosphate buffer, pH 8.8. The final pH was 8.6.
(ii) Cuvette B: 0.35 U TBADH (15.8 μL from a stock solution (0.022U/μL)) of, 2.2 mM β-NADP+ (5 μL from a 220 mM stock) and 479.5 μL of 50 mM sodium pyrophosphate buffer, pH 8.8. The final pH was 8.6. The total volume of the aqueous layer was maintained as 500 μL in both cuvettes in all ISES experiments.
C. Step by Step Protocol: A catalyst stock solution (22 μmol of catalyst in 620 μL CHCl3) was made up in a 1.5 ml microcentrifuge tube, and stored on ice, along with a stock of (±)-propylene oxide, in a separate tube. The organic layers were prepared by briefly vortexing 150 μL (5.4 μmol, 0.25 mol %) of the catalyst stock in CHCl3 with 150 μL (2.15 mmol) of (±)-propylene oxide in iced microcentrifuge tubes. These were loaded into 1 mL quartz cuvettes using precooled (refrigerator), disposable 1 mL syringes. The aqueous layers were then layered on top of the organic layers, by syringe, down the walls of the cuvette.

[2] = [total 1,2-propanediol] in aqueous ISES layer by 1H NMR; settings: for [diol] (mM) @ 15 min: aqueous ISES layer, 1H NMR, t = 15 min; for Norm.: normalized to the catalyst derived from salen 3b (rate 1.0)
Experimental: The concentration of 1,2-propanediol in the aqueous layer was estimated under typical ISES conditions using 1H NMR spectroscopy. The bilayer was prepared as usual for double cuvette-ISES (Section V), but for the substitution of D2O for H2O in the buffer, and the elimination of the dehydrogenase enzymes. After 15 min, the aqueous layer (300 μL of 500 μL total) was withdrawn and mixed with a fresh solution of imidazole of known concentration (also 300 μL in D2O), as an internal concentration standard. Accumulation of the 1H NMR spectrum, followed by integration and quantitation, provided an experimental measure of [total diol] in the aqueous reporting layer at t=15 minutes for the catalyst under investigation. The observed diol concentrations for ten catalysts examined in this way are collected in Table S6, below. These have been normalized to the value for the catalyst derived from salen 3b (arbitrarily assigned a rate of 1.0).

[3] = HKR of (±)-propylene oxide under standard neat 'Jacobsen conditions' (NMR conversion, chiral HPLC ee); settings: for NMR conv. (time): 3 h; for NMR conv. (time) / % ee (HPLC): loading 0.25 mol %; for % ee of the 1,2-propanediol product, as observed by chiral HPLC (lower number): neat propylene oxide, 0.55 equiv. H2O, 0.25 mol % catalyst, 3 h reaction time
Experimental: Salens in the fully synthetic, 42 member focused library that led to catalysts with appreciable activity, as indicated by double cuvette-ISES, were also evaluated ‘outside of the cuvette,’ under conditions more typically employed in HKR reactions. Specifically, these Co(III)-salen catalysts were evaluated in the HKR of (±)-propylene oxide, under neat conditions, similar to those described by Jacobsen and coworkers. Reactions were arbitrarily stopped after 3 hours, to obtain the enantiopurity of the 1,2-propanediol product at relatively early reaction times, for comparison with ISES predictions.
A typical procedure follows: To the Co(III)-salen catalyst derived from 7e (5.4 mg, 5.4 μmol, 0.25 mol %) and (±)-propylene oxide (125 mg, 2.15 mmol) at 0° C., was added water (21 μL, 1.18 mmol, 0.55 equiv.). The reaction mixture was securely capped, and allowed to warm to room temperature and stirred, most commonly for a total of 3 hours. Percent conversion at 3 hours was evaluated by 1H NMR of an aliquot (cooled to 0° C. for the transfer), in CDCl3. In most of these cases, the conversion was low enough after 3 hours, that the unreacted epoxide (bp 32° C.) was of relatively low ee, and was therefore removed by evaporation under aspirator vacuum. When the conversion was less than 5% by NMR after 3 hours, reactions were continued for longer times.
Upon termination of the reaction, the diol product was isolated by Kugelrohr distillation (˜120° C.-oven temp; 0.1 torr). To determine ee, the isolated diol was derivatized using p-bromobenzoyl imidazole (2.2 equiv.) in THF in the presence of NaH (4 equiv.) at room temperature for 5 min. The bis(p-bromobenzoate) esters obtained following sequential washes with 1 N HCl and saturated sodium bicarbonate, were of sufficient purity to be used directly for chiral HPLC analysis (Chiralcel OD, 99% […]). [drawing 23] [drawing 24] [drawing 25] [drawing 26] [drawing 27]

[4] = reaction stopped at the time given (mostly 3 h), + = (S), − = (R)

Molecule	% ee of the 1,2-propanediol product, as predicted by double-cuvette ISES (upper number) [1]	[diol] (mM) @ 15 min [2] [mM]	Norm. [2]	NMR conv. (time) [3]	% ee (HPLC) [3, 4]	% ee of the 1,2-propanediol product, as observed by chiral HPLC (lower number) ([3]; + = (S), − = (R))	ISES rate in the HLADH cuvette ([1]; over 35 min) [mAbs min−1]	% ee (HPLC) ([3]; @3 h)	% ee (HPLC) ([3]; @20 h)	% ee of the 1,2-propanediol product, as predicted by double-cuvette ISES (upper number) ([1]; listed as 6a*)	NMR conv. (time) ([3]; listed as 6a*)	% ee (HPLC) ([3]; reaction stopped at the time printed in the row (mostly 3 h), + = (S), − = (R), listed as 6a*)	% ee of the 1,2-propanediol product, as observed by chiral HPLC (lower number) ([3]; + = (S), − = (R), listed as 6a*)
CC(C)(C)c1cccc(C=NC[C@H](Cc2cccc3ccccc23)N=Cc2cccc(C(C)(C)C)c2O)c1O [Salen 4b, N,N′-Bis(3′-tert-butylsalicylidene)-(1S)-(α-naphthylmethyl)-1,2-ethylenediamine]	+91 % ee	98	1.02	50 (3 h) %	+59 (S) % ee	+59 % ee	–	–	–	–	–	–	–
CC(C)(C)c1cccc(C=NC[C@H](Cc2ccccc2)N=Cc2cccc(C(C)(C)C)c2O)c1O [Salen 3b, N,N′-Bis(3′-tert-butylsalicylidene)-(1S)-benzyl-1,2-ethylenediamine]	+70 % ee	96	1.0	–	+57 (S) % ee	+57 % ee	–	–	–	–	–	–	–
Oc1c(I)cc(I)cc1C=NC[C@H](Cc1ccc2ccccc2c1)N=Cc1cc(I)cc(I)c1O [Salen 5e, N,N′-Bis(3′,5′-diiodosalicylidene)-(1S)-(β-naphthylmethyl)-1,2-ethylenediamine]	+35 % ee	–	–	3 (3 h) %	−5 (R) % ee	−5 % ee	–	–	–	–	–	–	–
Oc1c(I)cc(I)cc1C=NC[C@@H](N=Cc1cc(I)cc(I)c1O)c1ccccc1 [Salen 2e, N,N′-Bis(3′,5′-diiodosalicylidene)-(1S)-phenyl-1,2-ethylenediamine]	+4 % ee	–	–	26 (3 h) %	−41 (R) % ee	−41 % ee	–	–	–	–	–	–	–
CC1(C)CCN2CCC(C)(C)c3c(O)c(C=NC[C@@H](N=Cc4cc5c6c(c4O)C(C)(C)CCN6CCC5(C)C)c4ccccc4)cc1c32 [Salen 2g, N,N′-Bis(8′-hydroxy-1′,1′,7′,7′-tetramethyljulolidinyl-9′-methylidene)-(1S)-phenyl-1,2-ethylenediamine]	−41 % ee	–	–	–	–	−71 % ee	14.9	−71@3 h, % ee	−65@20 h (R) % ee	–	–	–	–
CC(C)(C)c1cc(C=NC[C@H](Cc2ccccc2)N=Cc2cc(C(C)(C)C)cc(C(C)(C)C)c2O)c(O)c(C(C)(C)C)c1 [Salen 3a, N,N′-Bis(3′,5′-di-tert-butylsalicylidene)-(1S)-benzyl-1,2-ethylenediamine]	+48 % ee	–	–	46 (3 h) %	+55 (S) % ee	+55 % ee	–	–	–	–	–	–	–
CO[C@H]1[C@@H]2OC(C)(C)O[C@@H]2COC1(CN=Cc1cc(C(C)(C)C)cc(C(C)(C)C)c1O)N=Cc1cc(C(C)(C)C)cc(C(C)(C)C)c1O (stereo partly shown) [Salen 6a, N,N′-Bis(3′,5′-di-tert-butylsalicylidene)-3-O-methyl-4,5-O-isopropylidene-1,2-dideoxy-Dfructopyranosyl-1,2-diamine]	–	–	–	–	–	–	–	–	–	+77 % ee	12 (3 h) %	+69 (S) % ee	+69 % ee
CC(C)(C)c1cccc(C=NC[C@H](Cc2ccc3ccccc3c2)N=Cc2cccc(C(C)(C)C)c2O)c1O [Salen 5b, N,N′-Bis(3′-tert-butylsalicylidene)-(1S)-(β-naphthylmethyl)-1,2-ethylenediamine]	+65 % ee	75.5	0.79	45 (3 h) %	+68 (S) % ee	+68 % ee	–	–	–	–	–	–	–
CC(C)(C)c1cc(C=NC[C@H](Cc2ccc3ccccc3c2)N=Cc2cc(C(C)(C)C)cc(C(C)(C)C)c2O)c(O)c(C(C)(C)C)c1 [Salen 5a, N,N′-Bis(3′,5′-di-tert-butylsalicylidene)-(1S)-(β-naphthylmethyl)-1,2-ethylenediamine]	+87 % ee	52.5	0.55	36 (3 h) %	+66 (S) % ee	+66 % ee	–	–	–	–	–	–	–
Oc1c(C=NC[C@H](Cc2ccccc2)N=Cc2ccc3ccccc3c2O)ccc2ccccc12 [Salen 3d, N,N′-Bis(1′-hydroxy-2′-naphthylidene)-(1S)-benzyl-1,2-ethylenediamine]	−54 % ee	–	–	10 (3 h) %	−30 (R) % ee	−30 % ee	–	–	–	–	–	–	–
CO[C@H]1[C@@H]2OC(C)(C)O[C@@H]2COC1(CN=Cc1cccc(C(C)(C)C)c1O)N=Cc1cccc(C(C)(C)C)c1O (stereo partly shown) [Salen 7b, N,N′-Bis(3′-tert-butylsalicylidene)-3-O-methyl-4,5-O-isopropylidene-1,2-dideoxy-Dfructopyranosyl-1,2-diamine]	−28 % ee	–	–	9 (3 h) %	−40 (R) % ee	−40 % ee	–	–	–	–	–	–	–
N,N′-Bis(3′-tert-butylsalicylidene)-[1R-(1α,2α,5α)]-2-amino-7,7-dimethyl-2-bicyclo[3.3.1]heptaneethanamine [Salen 1b]	+68 % ee	–	–	–	+75 (S) % ee	+75 % ee	–	–	–	–	–	–	–
